Test results: US9650395B2, “Antibacterial compounds and methods for use” (PTC Therapeutics, Inc., priority 2011, dated 2017)
In brackets after ≈: the same amount, converted by molar mass. Read-outs that look alike come from different tables or passages of the source.

Legend:
[1] = tested on: super sensitive Gram-negative Escherichia coli (E. coli) BAS849; assay: Antibacterial activity, microbroth dilution MIC, E. coli BAS849; type: cell-based; conditions: Escherichia coli, read-out: MIC, BAS849
[2] = tested on: Moraxella catarrhalis (M. catarrhalis) 25238; assay: Antibacterial activity, MIC, M. catarrhalis 25238; type: cell-based; conditions: Moraxella catarrhalis, M. catarrhalis 25238; read-out: MIC 25238
[3] = tested on: Neisseria meningitidis (N. meningitidis) 13090; assay: Antibacterial activity, MIC, N. meningitidis 13090; type: cell-based; conditions: Neisseria meningitidis; N. meningitidis 13090; read-out: MIC 13090
[4] = tested on: control Gram-negative E. coli 25922 strain; assay: Antibacterial activity, microbroth dilution MIC, E. coli 25922; type: cell-based, Escherichia coli; conditions: Escherichia coli; E. coli 25922, microbroth dilution; read-out: MIC, 25922
[5] = tested on: Haemophilus influenzae (H. influenzae) 49247; assay: Antibacterial activity, MIC, H. influenzae 49247; type: cell-based; conditions: Haemophilus influenzae; H. influenzae 49247; read-out: MIC 49247
Description: The antibacterial activity from a microbroth dilution method may be presented as the minimum inhibitory concentration (MIC in […]). The MIC value is the lowest concentration of a drug which prevents macroscopically visible bacterial growth under test conditions.
Antibacterial activity of test compounds against the Gram-negative bacteria Haemophilus influenzae (H. influenzae) 49247, Moraxella catarrhalis (M. catarrhalis) 25238 and Neisseria meningitidis (N. meningitidis) 13090 is shown in Table 6.

[6] = tested on: Gram-positive Staphylococcus aureus (S. aureus) 29213; assay: Antibacterial activity, microbroth dilution MIC, S. aureus 29213; type: cell-based; conditions: Staphylococcus aureus; S. aureus 29213, microbroth dilution; read-out: MIC, 29213
[7] = E. coli BAS849, microbroth dilution

Structure (SMILES)	MIC [1, 7]	MIC [2]	MIC [3]	MIC [4]	MIC [5]	MIC [6]	MIC [1]
CCc1cc(C(=O)O)c(=O)[nH]c1-c1ccc(N2CCN(C(=O)OC(C)(C)C)CC2)c(F)c1 [Cpd 91, 6-{4-[4-(tert-butoxycarbonyl)piperazin-1-yl]-3-fluorophenyl}-5-ethyl-2-oxo-1,2-dihydropyridine-3-carboxylic acid]	12.5 to 150 µg/mL (≈ 28.1 to 337 µM)	< 1 µg/mL	3.5 to 12.5 µg/mL (≈ 7.86 to 28.1 µM)	12.5 to 150 µg/mL (≈ 28.1 to 337 µM)	1 to 3.5 µg/mL (≈ 2.24 to 7.86 µM)	12.5 to 150 µg/mL (≈ 28.1 to 337 µM)	
CCc1c(-c2ccc(N(CC)CC)cc2)[nH]c(=O)c(C(=O)O)c1O [Cpd 98, 6-[4-(diethylamino)phenyl]-5-ethyl-4-hydroxy-2-oxo-1,2-dihydropyridine-3-carboxylic acid]	< 1 µg/mL	3.5 to 12.5 µg/mL (≈ 10.6 to 37.8 µM)	< 1 µg/mL	12.5 to 150 µg/mL (≈ 37.8 to 454 µM)	1 to 3.5 µg/mL (≈ 3.03 to 10.6 µM)	3.5 to 12.5 µg/mL (≈ 10.6 to 37.8 µM)	
CCc1cc(C(=O)O)c(=O)[nH]c1-c1ccc(N2CCN(C(=O)OC(C)(C)C)CC2)cc1 [Cpd 102, 6-{4-[4-(tert-butoxycarbonyl)piperazin-1-yl]phenyl}-5-ethyl-2-oxo-1,2-dihydropyridine-3-carboxylic acid]	1 to 3.5 µg/mL (≈ 2.34 to 8.19 µM)	< 1 µg/mL	1 to 3.5 µg/mL (≈ 2.34 to 8.19 µM)	12.5 to 150 µg/mL (≈ 29.2 to 351 µM)	1 to 3.5 µg/mL (≈ 2.34 to 8.19 µM)	12.5 to 150 µg/mL (≈ 29.2 to 351 µM)	
CCc1cc(C(=O)O)c(=O)[nH]c1-c1ccc(N2CCNCC2)cc1.O=C(O)C(F)(F)F [Cpd 103, 5-ethyl-2-oxo-6-[4-(piperazin-1-yl)phenyl]-1,2-dihydropyridine-3-carboxylic acid trifluoroacetate]		12.5 to 150 µg/mL	3.5 to 12.5 µg/mL	12.5 to 150 µg/mL	< 1 µg/mL	12.5 to 150 µg/mL	3.5 to 12.5 µg/mL
CCc1cc(C(=O)O)c(=O)[nH]c1-c1ccc(-n2ccnc2)cc1 [Cpd 106, 5-ethyl-6-[4-(1H-imidazol-1-yl)phenyl]-2-oxo-1,2-dihydropyridine-3-carboxylic acid]	12.5 to 150 µg/mL (≈ 40.4 to 485 µM)	12.5 to 150 µg/mL (≈ 40.4 to 485 µM)	3.5 to 12.5 µg/mL (≈ 11.3 to 40.4 µM)	12.5 to 150 µg/mL (≈ 40.4 to 485 µM)	< 1 µg/mL	12.5 to 150 µg/mL (≈ 40.4 to 485 µM)	
CCc1c(-c2ccc(N3CCCCC3)cc2)[nH]c(=O)c(C(=O)O)c1O [Cpd 109, 5-ethyl-4-hydroxy-2-oxo-6-[4-(piperidin-1-yl)phenyl]-1,2-dihydropyridine-3-carboxylic acid]	< 1 µg/mL	< 1 µg/mL	< 1 µg/mL	12.5 to 150 µg/mL (≈ 36.5 to 438 µM)	< 1 µg/mL	3.5 to 12.5 µg/mL (≈ 10.2 to 36.5 µM)	
CCc1cc(C(=O)O)c(=O)[nH]c1-c1ccc(N2CCCC2=O)cc1 [Cpd 114, 5-ethyl-2-oxo-6-[4-(2-oxopyrrolidin-1-yl)phenyl]-1,2-dihydropyridine-3-carboxylic acid]	1 to 3.5 µg/mL (≈ 3.06 to 10.7 µM)	< 1 µg/mL	< 1 µg/mL	12.5 to 150 µg/mL (≈ 38.3 to 460 µM)	< 1 µg/mL	12.5 to 150 µg/mL (≈ 38.3 to 460 µM)	
CCc1cc(C(=O)O)c(=O)[nH]c1-c1ccc(N2CC3CC2CN3)cc1.O=C(O)C(F)(F)F (stereo not drawn) [Cpd 138, 6-[4-(2,5-diazabicyclo[2.2.1]hept-2-yl)phenyl]-5-ethyl-2-oxo-1,2-dihydropyridine-3-carboxylic acid trifluoroacetate]		< 1 µg/mL	12.5 to 150 µg/mL	12.5 to 150 µg/mL	12.5 to 150 µg/mL	12.5 to 150 µg/mL	12.5 to 150 µg/mL
CCc1cc(C(=O)O)c(=O)[nH]c1-c1ccc(N2CCC[C@H]2C(F)(F)F)cc1 [Cpd 142, 5-ethyl-2-oxo-6-{4-[(2S)-2-(trifluoromethyl)pyrrolidin-1-yl]phenyl}-1,2-dihydropyridine-3-carboxylic acid]	1 to 3.5 µg/mL (≈ 2.63 to 9.2 µM)	1 to 3.5 µg/mL (≈ 2.63 to 9.2 µM)	< 1 µg/mL	12.5 to 150 µg/mL (≈ 32.9 to 394 µM)	3.5 to 12.5 µg/mL (≈ 9.2 to 32.9 µM)	12.5 to 150 µg/mL (≈ 32.9 to 394 µM)	
CCc1cc(C(=O)O)c(=O)[nH]c1-c1ccc(N2CCCC2c2ccccc2)cc1 (stereo not drawn) [Cpd 145, 5-ethyl-2-oxo-6-[4-(2-phenylpyrrolidin-1-yl)phenyl]-1,2-dihydropyridine-3-carboxylic acid]	< 1 µg/mL	< 1 µg/mL	< 1 µg/mL	12.5 to 150 µg/mL (≈ 32.2 to 386 µM)	< 1 µg/mL	1 to 3.5 µg/mL (≈ 2.57 to 9.01 µM)	
